Patent US9309231B2, “Bridged ring compounds as hepatitis C virus (HCV) inhibitors and pharmaceutical applications thereof” (SUNSHINE LAKE PHARMA CO., LTD, priority 2012, dated 2016)

Columns and labels:
HCV GT1a replicon cells = assay: HCV replicon assay, GT1a replicon cells; assay type: cell-based; conditions: Hepatitis C virus, 72 hours incubation, luciferase reporter or NEO gene qPCR readout, read-out: EC50 against HCV 1a genotype
Description: (§1) An HCV Replicon assay was utilized in the present disclosure, and was prepared, developed and validated as described in Science, 1999, 285 (5424), 110-3 and J. Virol., 2003, 77 (5), 3007-19.
(§2) HCV GT1a, GT1b and GT2a replicon cells were used to test the currently described compound series as well as wild-type cells HCV 1b and resistant cells Y^93H, L31F, P32L and I302V. GT1a and CT1b are HCV Replicon System which is transfected HCV 1a, 1b genotype respectively.
(§3) 1. Testing EC50 of the Compounds by Luciferase Assay
(§4) The GT1b cells and GT1a cells were seeded into 96-well plates (8,000 cells in 125 μl/well) respectively; each compound was diluted to desired concentration using 5-fold serial dilutions protocol, 10 dose in duplicate, and added to wells with POD™ 810 Plate Assembler. The final concentration of DMSO was 0.5%; the plates were incubated in a CO2 incubator for 72 hours; after that, 40 μl of Luciferase assay substrate (Promega Bright-Glo) was added to each well, and detected by a chemiluminescence detection system (Topcount Microplate Scintillation and Luminescence Counter) 5 minutes later; data analysis.
(§5) 2. Testing EC50 of the Compounds by Detecting Antibiotic G418 Resistance Gene NEO Gene
(§6) The GT1b cells and GT1a cells were seeded into 96-well plates (8,000 cells in 125 μl/well) respectively; each compound was diluted to desired concentration using 5-fold serial dilutions protocol, 10 dose in duplicate, and added to wells with POD™ 810 Plate Assembler., the final concentration of DMSO was 0.5%; the cells were incubated in a CO2 incubator for 72 hours; quantitative PCR. • Sample preparation: the supernatant was removed, 100 μl of FCW buffer solution was added to each well, washed carefully and discarded the solution; 50 μl of lysate FCP was added to each well, the cells was lysed as PCR template and diluted with DEPC water. • Quantitative PCR: preparation of reaction mixture according to PCR system; the reaction mixture was dispensed into a 384-well PCR reaction plate (specially for quantitative); and a standard template which was diluted in proportion was distributed into the plate; and the sample template was distributed into the plate; then the 384-well plate was sealed with closure plate membrane; the […] PCR machine was operated by procedures; data analysis.
(§7) 3. Data Processing: The EC50 Values of Compounds were Analyzed by GraphPad Prism Software.

HCV GT1b replicon cells = assay: HCV replicon assay, GT1b replicon cells; assay type: cell-based; conditions: Hepatitis C virus, 72 hours incubation, luciferase reporter or NEO gene qPCR readout, read-out: EC50 against HCV 1b genotype
Description: as §1, §2, §3, §4, §5, §6, §7

SMILES	EC50 (HCV GT1a replicon cells) [pM]	EC50 (HCV GT1b replicon cells) [pM]
COC(=O)N[C@@H](C)C(=O)N1CCC[C@H]1c1ncc(-c2ccc(-c3ccc(-c4ccc5[nH]c([C@@H]6CCCN6C(=O)[C@H](C)NC(=O)OC)nc5c4)c4c3C3CCC4C3)cc2)[nH]1 (stereo partly shown) [Example 7]	94	76
COC(=O)N[C@H](C(=O)N1CCC[C@H]1C(=O)Nc1cccc(-c2ccc(-c3ccc(-c4cnc([C@@H]5CCCN5C(=O)[C@@H](NC(=O)OC)C(C)C)[nH]4)cc3)c3c2C2CCC3C2)c1)C(C)C (stereo partly shown) [Example 16]	3500	9
COC(=O)N[C@H](C(=O)N1CCC[C@H]1c1ncc(-c2ccc(-c3ccc(-c4ccc(-c5cnc([C@@H]6CCCN6C(=O)[C@@H](NC(=O)OC)C(C)C)[nH]5)cc4)c4c3C3CCC4C3)cc2)[nH]1)C(C)C [Example 5]	1050	98
COC(=O)N[C@H](C(=O)N1CCC[C@H]1c1ncc(-c2ccc(-c3ccc(-c4cnc([C@@H]5CCCN5C(=O)[C@@H](NC(=O)OC)C(C)C)[nH]4)c4c3C3CCC4CC3)cc2)[nH]1)C(C)C [Example 22]	11400	4
COC(=O)N[C@H](C(=O)N1C[C@H](C)C[C@H]1c1ncc(-c2ccc(-c3ccc(-c4cnc([C@@H]5C[C@@H](C)CN5C(=O)[C@@H](NC(=O)OC)C(C)C)[nH]4)c4c3C3CCC4CC3)cc2)[nH]1)C(C)C [Example 59]	37	8
COC(=O)N[C@H](C(=O)N1CCC[C@H]1c1ncc(-c2ccc(-c3ccc(-c4ccc5nc([C@@H]6CCCN6C(=O)[C@@H](NC(=O)OC)C(C)C)[nH]c5c4)c4c3C3CCC4C3)s2)[nH]1)C(C)C (stereo partly shown) [Example 38]	64	17
[2H]C([2H])([2H])C([2H])(C([2H])([2H])[2H])[C@]([2H])(NC(=O)OC)C(=O)N1CCC[C@H]1c1ncc(-c2ccc(-c3ccc(-c4cnc([C@@H]5CC6CC6N5C(=O)[C@@]([2H])(NC(=O)OC)C([2H])(C([2H])([2H])[2H])C([2H])([2H])[2H])[nH]4)cc3)c3c2C2CCC3C2)[nH]1 (stereo partly shown) [Example 76]	127	13
COC(=O)N[C@H](C(=O)N1CCC[C@H]1c1ncc(-c2ccc(-c3ccc(-c4ccc5nc([C@@H]6CCCN6C(=O)[C@@H](NC(=O)OC)C(C)C)[nH]c5c4)c4c3C3CCC4C3)nc2)[nH]1)C(C)C (stereo partly shown) [Example 41]	67	10
COC(=O)N[C@@H](C)C(=O)N1CCCC[C@H]1c1ncc(-c2ccc(-c3ccc(-c4ccc5nc([C@@H]6CCCCN6C(=O)[C@H](C)NC(=O)OC)[nH]c5c4)c4c3C3CCC4N3C)cc2)[nH]1 (stereo partly shown) [Example 35]	103	17
COC(=O)N[C@H](C(=O)N1CCC[C@H]1c1ncc(-c2ccc(-c3ccc(-c4cnc([C@@H]5CCCN5C(=O)[C@@H](NC(=O)OC)C(C)C)[nH]4)c4c3C3CCC4N3C)cc2)[nH]1)C(C)C (stereo partly shown) [Example 26]	653	77
COC(=O)N[C@H](C(=O)N1CCS[C@H]1c1ncc(-c2ccc(-c3ccc(-c4cnc([C@@H]5SCCN5C(=O)[C@@H](NC(=O)OC)C(C)C)[nH]4)c4c3C3CCC4C3)cc2)[nH]1)C(C)C (stereo partly shown) [Example 46]	439	35
COC(=O)N[C@H](C(=O)N1C[C@@H](C)C[C@H]1c1ncc(-c2ccc(-c3ccc(-c4cnc([C@@H]5C[C@H](C)CN5C(=O)[C@@H](NC(=O)OC)C(C)C)[nH]4)c4c3C3CCC4C3)cc2)[nH]1)C(C)C (stereo partly shown) [Example 20]	< 1	45
COC(=O)N[C@H](C(=O)N1CCC[C@H]1c1ncc(-c2ccc(-c3nnc(-c4ccc5[nH]c([C@@H]6CCCN6C(=O)[C@@H](NC(=O)OC)C(C)C)nc5c4)c4c3C3CCC4CC3)cc2)[nH]1)C(C)C [Example 11]	49	23
[2H]C([2H])([2H])[C@]([2H])(NC(=O)OC)C(=O)N1C[C@@H](F)C[C@H]1c1ncc(-c2ccc(-c3ccc(-c4cnc([C@@H]5C[C@H](F)CN5C(=O)[C@@]([2H])(NC(=O)OC)C([2H])([2H])[2H])[nH]4)c4c3C3CCC4C3)cc2)[nH]1 (stereo partly shown) [Example 79]	314	43
COC(=O)N[C@H](C(=O)N1CCC[C@H]1C(=O)Nc1ccc(-c2ccc(-c3ccc(NC(=O)[C@@H]4CCCN4C(=O)[C@@H](NC(=O)OC)C(C)C)cc3)c3c2C2CCC3C2)cc1)C(C)C [Example 43]	1130	73
COC(=O)N[C@H](C(=O)N1CCC[C@H]1c1ncc(-c2ccc(-c3ccc(-c4cnc([C@@H]5CCCN5C(=O)[C@@H](NC(=O)OC)C(C)C)[nH]4)c4c3C3CCC4C3)s2)[nH]1)C(C)C (stereo partly shown) [Example 40]	83	12
COC(=O)N[C@H](C(=O)N1CCCC1c1nc2ccc(-c3ccc(-c4ccc5nc([C@@H]6CCCN6C(=O)[C@@H](NC(=O)OC)C(C)C)[nH]c5c4)c4c3C3CCC4O3)cc2[nH]1)C(C)C (stereo partly shown) [Example 65]	64	13
COC(=O)N[C@H](C(=O)N1CCC[C@H]1c1nc2cc(-c3ccc(-c4ccc5[nH]c([C@@H]6CCCN6C(=O)[C@@H](NC(=O)OC)C(C)C)nc5c4)c4c3C3CCC4C3)ccc2[nH]1)C(C)C [Example 6]	47	6
COC(=O)N[C@H](C(=O)N1CC(F)(F)C[C@H]1c1ncc(-c2ccc(-c3ccc(-c4cnc([C@@H]5CC(F)(F)CN5C(=O)[C@@H](NC(=O)OC)C(C)C)[nH]4)c4c3C3CCC4C3)cc2)[nH]1)C(C)C (stereo partly shown) [Example 14]	487	6
COC(=O)N[C@H](C(=O)N1C[C@@H](F)CC1c1ncc(-c2ccc(-c3ccc(-c4cnc(C5C[C@H](F)CN5C(=O)[C@@H](NC(=O)OC)C(C)C)[nH]4)c4c3C3CCC4C3)cc2)[nH]1)C(C)C (stereo partly shown) [Example 13]	530	34
